Experiments:
Assay type in all cases: functional
Eimeria tenella [1] = experiment: Anticoccidial activity against Eimeria tenella using amprolium resistant strain at a concentration of 0.015% drug in feed
Eimeria tenella [2] = experiment: Anticoccidial activity against Eimeria tenella using amprolium resistant strain at a concentration of 0.0035% drug in feed
Eimeria tenella [3] = experiment: Anticoccidial activity against Eimeria tenella using amprolium resistant strain at a concentration of 0.007% drug in feed
Eimeria tenella [4] = experiment: Anticoccidial activity against Eimeria tenella using amprolium resistant strain at a concentration of 0.00175% drug in feed

Row | SMILES | Activity (Eimeria tenella [1]) | further results
1 | CCCCN(CC)S(=O)(=O)c1cncc([N+](=O)[O-])c1 | 175 | –
2 | CN(C)S(=O)(=O)c1cncc([N+](=O)[O-])c1 | 175 | –
3 | CCOCCN(CC)S(=O)(=O)c1cncc([N+](=O)[O-])c1 | 178 | –
4 | CNS(=O)(=O)c1cncc([N+](=O)[O-])c1 | 195 | –
5 | O=[N+]([O-])c1cncc(S(=O)(=O)NCc2ccccc2)c1 | 168 | –
6 | CC(C)(C)C(=O)NS(=O)(=O)c1cncc([N+](=O)[O-])c1 | 122 | –
7 | CCCCCCCC(=O)NS(=O)(=O)c1cncc([N+](=O)[O-])c1 | 187 | –
8 | NS(=O)(=O)c1ccc[n+]([O-])c1 | 160 | –
9 | O=[N+]([O-])c1cncc(S(=O)(=O)Nc2ccccc2)c1 | 86 | –
10 | NS(=O)(=O)c1ncccc1[N+](=O)[O-] | 55 | –
11 | NS(=O)(=O)c1ccc([N+](=O)[O-])nc1 | 120 | –
12 | NS(=O)(=O)c1cccnc1[N+](=O)[O-] | 144 | –
13 | NS(=O)(=O)c1cnccc1[N+](=O)[O-] | 144 | –
14 | CCOCCNS(=O)(=O)c1cncc([N+](=O)[O-])c1 | 192 | –
15 | NS(=O)(=O)c1cncc([N+](=O)[O-])c1 | 194 | Activity (Eimeria tenella [2]): 194; Activity (Eimeria tenella [3]): 195; Activity (Eimeria tenella [4]): 158
16 | CCNS(=O)(=O)c1cncc([N+](=O)[O-])c1 | 190 | –
17 | CCCCCCCCNS(=O)(=O)c1cncc([N+](=O)[O-])c1 | 126 | –
18 | NC(=O)c1cncc([N+](=O)[O-])c1 | 198 | Activity (Eimeria tenella [2]): 158; Activity (Eimeria tenella [3]): 186
19 | CC(=O)NS(=O)(=O)c1cncc([N+](=O)[O-])c1 | 186 | –
20 | NS(=O)(=O)c1cc[n+]([O-])cc1 | 120 | –
21 | NS(=O)(=O)c1cccc[n+]1[O-] | 183 | –
22 | O=[N+]([O-])c1cncc(S(=O)(=O)NCCO)c1 | 120 | –
23 | NS(=O)(=O)c1ccc([N+](=O)[O-])cn1 | 32 | –
24 | NS(=O)(=O)c1cccc([N+](=O)[O-])n1 | 120 | –
25 | NS(=O)(=O)c1cc([N+](=O)[O-])ccn1 | 107 | –
26 | CC(C)OCCCNS(=O)(=O)c1cncc([N+](=O)[O-])c1 | 193 | –
27 | CCCc1ncc(C[n+]2ccccc2C)c(N)n1.[Cl-] | 95 | –

Source: ChEMBL document CHEMBL1121588, “Studies on anticoccidial agents. 13. Synthesis and anticoccidial activity of nitropyridine-2- and -3-sulfonamides and derivatives” (1980)
